Experimental data reported in US4223041A, “Urea derivatives to treat anxiety and aggressivity” (Labaz, priority 1976, dated 1980).

Legend:
[1] = Anxiolytic and antiaggressive properties and separation from sedation (general statements); conditions: in vivo
[2] = Acute toxicity in mice; conditions: mouse, in vivo
Experimental: Acute toxicity was determined on Swiss E.O.P.S. mice, by oral route, using the technique of LITCHFIELD and WILCOXON (J. Pharmacol. Exp. Ther. […], 96, 99).

[3] = rota rod test (neurotoxicity); assay type: in vivo, mouse; conditions: for % of failures in rota rod test: mice, 30 min after administration
Experimental: The test used was that known as the rota rod test described by BOISSIER (Therapie 1958 XIII pp. 1074-1118).
This test aims at determining the ability of mice to coordinate their movements by seeing to what extent they can remain on a roller turning at a rate of 4 revolutions per minute for two minutes. The trial was carried out thirty minutes after administration by oral route of the compound to be studied and the percentage of failures was noted.
The value of this test is twofold. Failure on the part of the animals gives a very early indication of the slightest damage to the meuromuscular functions which cannot be discerned by any other means. Secondly, this test serves as an element of comparison for drawing up index figures involving the results obtained with other tests.

[4] = spontaneous motoricity in the mouse; assay type: in vivo
Description: This test is described in U.S. Pat. No. 3,929,869.

[5] = Action with respect to tremorine (cholinolytic properties); assay type: in vivo, mouse
Experimental: This test has been described by EVERETT (Nature, 1956, 177-238)
When injected into mice, tremorine produces peripheral cholinergic effects i.e. weeping, hypersalivation, sedation, diarrhea as well as central cholinergic effects i.e. tremors, akinesia.
Batches of 10 mice separated into individual cages, were given the compound to be studied, by oral route, 30 minutes before administration of an intraperitoneal dose of 100 mg/kg of tremorine.
Note was then taken in each batch of the percentage of animals presenting the various symptoms of tremorine-induced poisoning since at such a dose of tremorine 100% of the control animals are poisoned.
The results hereunder are expressed in percentage of mice protected against tremor at the dose of the compound of the invention which was administered: […]

[6] = Influence on acetylcholine-induced hypotension and bradycardia; assay type: in vivo; conditions: 100 mg/kg i.p., rat
Experimental: Similarly, at a dose of 100 mg/kg by intraperitoneal route, the preferred compound of the invention has no influence on acetylcholine-induced hypotension and bradycardia in the rat.

[7] = traction test (balance, muscular tonus and strength); conditions: mouse, in vivo; oral, mice, 60 minutes after administration; read-out: ED50 (dose which causes 50% failures in the traction test)
[8] = Aggressivity of the isolated mouse (antiaggressive activity); assay type: in vivo
Description: If a male mouse is isolated in a cage for three to four weeks, it will spontaneously attack any other animal of the same species which is placed in the same cage.
Mice wer isolated for the period of time required to render them spontaneously aggressive. Two mice, one rendered aggressive and one in a normal non-aggressive state, were then placed together and note was taken of the number of attacks by the aggressive mouse which occurred over a period of three minutes.
Each batch was composed of five pairs of animals.
The aggressive animals of each batch were then treated by oral route with the compound to be studied which was administered in such a way that the aggressive animals of each batch received a higher dose than those of the preceding batch.
Thirty minutes after administration, the couples were placed together again for a further three minutes and the number of attacks noted.

[9] = Potentiation of barbiturates, tranquillizers and ethanol; assay type: in vivo
Description: Additional pharmacological tests carried out with the preferred compound of the invention have shown that a non-sedative dose of this compound potentiates the hypnotic effect of the barbiturates as well as the sedative effect of tranquillizers such as meprobamate and diazepam.

[10] = Acute toxicity in rats; conditions: rat, in vivo
[11] = mouse, in vivo, po, 1000 mg/kg
Description: Finally, the hypnotic action of Compound A was studied in mice by means of the test of the posture reflex, the animals being kept under observation during the four hours following the oral administration of the product.

[12] = Four plates test (anxiolytic action); assay type: in vivo, mouse
Description: This test, which is specific to the anxiolytics, was undertaken with the mouse, thirty minutes after the oral administration of the compound to be studied.
It consists in placing mice in a box with fairly high walls, of which the bottom comprises four square plates. These plates, which all have the same dimensions, are separated from each other by a central axis and are alternately electrified by the positive and negative poles of a source of electric current. There is a space of a few millimeters between adjacent plates.
The mouse placed in this apparatus explores it and thus passes over the different plates in succession. Note is taken of the number of times each animal passes over the plates during one minute. When the current is switched on, the mouse passing over the plates receives an electric shock (80 V), which provokes a gradual decrease in the exploratory movements, and finally brings the animals to a complete stop.
Anxiolytic agents enable the animals to become more or less indifferent to the electric shock.
The percentage of protection against anxiety given by compounds of the invention was calculated by comparing the number of times the control animals passed over the plates when electrified with the number of times the treated animals passed over the electrified plates.

[13] = Effects on α- and β-adrenergic effects provoked by epinephrine; assay type: in vivo, rat; conditions: 200 mg/kg i.p.
[14] = Action on the cardiovascular and respiratory system; assay type: in vivo, rat
[15] = 3000 mg/kg oral, 8-day observation, read-out: deaths
[16] = comparison at 25%-protection dose of four plates test, 175 mg/kg
[17] = 100 and 200 mg/kg i.p., anaesthetized rat

Compound: CCCC(CCC)(CCC)NC(N)=O [Compound A, 1-(1,1-Di-n-propyl-n-butyl)-urea]
- anxiolytic and antiaggressive activity (in words) [1]: most outstanding anxiolytic and antiaggressive properties
- mortality at 192 h [2, 15]: 5%
- LD50 ([2]; oral): > 3000 mg/kg
- % of failures in rota rod test ([3]; 175 mg/kg oral): 0%
- % of failures in rota rod test ([3]; 600 mg/kg oral): 30%
- sedative effect relative to reference products ([3]; at ED25 of four plates test): least sedative
- failures in the rota rod test ([3]; at the dose which provokes a 60%-decrease in the number of combats): no failure
- Rota rod (% of failures) [3, 16]: 0%
- decrease in spontaneous motoricity ([4]; 175 mg/kg oral, mouse, 60 minutes, non-significant): 12%
- Spontaneous motoricity (% of decrease) [4, 16]: 12%
- decrease in spontaneous motoricity at dose giving 80% reduction in combats ([4]; dose producing 80% decrease in the number of combats): without any action on spontaneous motoricity
- % of protection against tremor ([5]; 200 mg/kg oral, mice, 30 min before 100 mg/kg i.p. tremorine): 0%
- protection against central or peripheral cholinergic effects provoked by tremorine ([5]; 100, 300, 400 and 500 mg/kg oral): did not protect any animal
- influence on acetylcholine-induced bradycardia [6]: no influence
- influence on acetylcholine-induced hypotension [6]: no influence
- TD50 at 1 h [7]: 600 mg/kg
- sedative effects at antiaggressive dose ([8]; 100 mg/kg oral): entirely devoid of any sedative effects
- ED50 ([8]; 0.5 h, oral, isolated mouse, 30 min after administration, read-out: ED50 (50% fewer attacks)): 142 mg/kg
- minimal effective dose ([8]; 0.5 h, oral, isolated mouse, read-out: dose from which antiaggressive action is exerted): 100 mg/kg
- potentiation of the effects of ethanol ([9]; in vivo): slight potentiation
- hypnotic effect of the barbiturates ([9]; non-sedative dose): potentiates
- sedative effect of tranquillizers such as meprobamate and diazepam ([9]; non-sedative dose): potentiates
- mortality at 192 h [10, 15]: 10%
- LD50 at 192 h ([10]; oral): > 3000 mg/kg
- loss of the posture reflex [11]: no loss of the posture reflex
- inhibition in vivo at 175 mg/kg ([12]; 0.5 h, 175 mg/kg oral, mouse, 30 min after administration, read-out: % of protection against anxiety): 25%
- positive result in four plates test without sedative effect ([12]; at ED25 of four plates test): without any sedative effect
- α-adrenergic effects provoked by epinephrine [13]: does not modify
- β-adrenergic effects provoked by epinephrine [13]: does not modify
- cardiac frequency [14, 17]: does not modify
- respiratory frequency [14, 17]: does not modify
- systemic arterial blood pressure [14, 17]: does not modify
- action on the cardiovascular or respiratory system ([14]; rat, in vivo): no appreciable action
